Laboratory results: patent US10925875B2 (National Jewish Health, priority 2018, dated 2021)

Legend:
Type in all cases: cell-based, human
MEK1/2 in ILC2s = test: Cytokine-induced MEK1/2 in ILC2s by FCM; settings: PBMCs, IL2 plus TSLP with and without Dex, 5 days, lin−CRTH2+ cells
Protocol: FIGS. 4A and 4B show the effect of Dex on cytokine-induced MEK1 (MEK) induction. PBMCs from an asthmatic patient were cultured with medium or IL2 plus one of the two epithelial ILC-inducing cytokines—IL33 and TSLP with and without Dex for 5 days. The expression of MEK on gated live lin−CRTH2+ cells was analyzed by FCM.
Heightened MEK1/2 mediates steroid resistance of lymphocytes. The effect of IL33 and TSLP on MEK1/2 induction and the effect of Dex was examined.

[1] = test system: intracellular IL5 expression in ILCs; test: Intracellular IL5 by FCM in isolated Lin− blood cells; settings: Dex 10^-7 M, 5 days
Protocol: (§1) FIGS. 2C and 2D show lineage-negative (Lin−) cells (0.4×10^6 per culture) from peripheral blood obtained from 3 allergic rhinitis (non-asthmatic) patients were cultured with IL2/IL33 or IL2/TSLP with and without Dex (10^-7 M) for 5 days. Cell-free supernatant was analyzed for IL5 by ELISA. Cells were analyzed by FCM for intracellular IL5. P value for data on panel C was calculated by paired t test due to low N. Interleukin-2 (IL-2); interleukin-33 (IL-33).
(§2) The direct effect of Dex on isolated lineage− negative (Lin−) cells (representing ILCs) from the peripheral blood was examined. The effect of Dex was measured by two approaches: measurement of secreted IL5 by ELISA and measurement of the expression of intracellular IL5 by FCM. Dex inhibited IL5 secretion by IL2/IL33-stimulated ILCs by nearly 79% (FIG. 2C). In contrast, it inhibited IL5 secretion by IL2/TSLP-stimulated ILCs by only 25%. […] Dex inhibited intracellular IL5 expression in IL2/IL33- and IL2/TSLP-stimulated ILCs by 65% and 18%, respectively (FIG. 2D).

BAL IL5+ ILC2s = test: Steroid response of BAL IL5+ ILC2s by flow cytometry; settings: BAL cells, MS 100 μM with and without Dex 10^−7M, 3 days
Protocol: FIGS. 1A and 1B show the effect of dexamethasone (Dex) on blood (A) and bronchoalveolar lavage (BAL) (B) Type 2 innate lymphoid cells (ILC2s). Peripheral blood mononuclear cells (PBMC) and BAL cells from an asthmatic patient were cultured with vehicle (V, ethanol)) or dexamethasone (Dex 10^−7M), a synthetic steroid, for 3 days. The frequency of lin−CRTH2+IL7Rα+IL5+ cells (considered as markers of ILC2s) was measured by flow cytometry (FCM) and analyzed by FlowJo. Frequency of dead cells (measured by e-Fluor 780, e-Bioscience) was less than 10% and excluded from the gating. The difference in dead cells between V and Dex was less than 10%). Prostaglandin D2 receptor 2 (CRTH2); interleukin-7 receptor alpha (IL7Rα); interleukin-5 (IL-5). […]
BAL cells were cultured with MS (100 μM) with and without Dex (10^−7M) for 3 days. IL5 expression by lin−CRTH2+IL7Rα+ ILC2s was measured by FCM (N=8, *: P=0.0006 by Kruskal Walis test).
Steroid response of ILC2s from the bronchoalveolar lavage (BAL, obtained during bronchoscopy) and blood obtained from asthmatic patients was studied. […] Interluekin-5 (IL5)-expressing ILC2s were examined by flow cytometry and analyzed by FlowJo. […] Frequency of dead cells (measured by e-Fluor 780, e-Bioscience) was less than 10% and excluded from the gating. […]

[2] = test system: IL5+ ILC2s from the blood; test: Steroid response of blood IL5+ ILC2s by flow cytometry; settings: MNC and BAL cells, Dex 10^−7M, 3 days, e-Fluor 780
Protocol: FIGS. 1A and 1B show the effect of dexamethasone (Dex) on blood (A) and bronchoalveolar lavage (BAL) (B) Type 2 innate lymphoid cells (ILC2s). Peripheral blood mononuclear cells (PBMC) and BAL cells from an asthmatic patient were cultured with vehicle (V, ethanol)) or dexamethasone (Dex 10^−7M), a synthetic steroid, for 3 days. The frequency of lin−CRTH2+IL7Rα+IL5+ cells (considered as markers of ILC2s) was measured by flow cytometry (FCM) and analyzed by FlowJo. Frequency of dead cells (measured by e-Fluor 780, e-Bioscience) was less than 10% and excluded from the gating. The difference in dead cells between V and Dex was less than 10%). Prostaglandin D2 receptor 2 (CRTH2); interleukin-7 receptor alpha (IL7Rα); interleukin-5 (IL-5).
FIGS. 1C and 1D show the cumulative data on the effect of dexamethasone (Dex) on blood (FIG. 1C) and BAL (FIG. 1D) lin−CRTH2+IL7Rα+IL5+ cells from 14 allergic asthmatic patients.
Steroid response of ILC2s from the bronchoalveolar lavage (BAL, obtained during bronchoscopy) and blood obtained from asthmatic patients was studied. Blood was processed to isolate mononuclear cells (MNC). BAL cells were studied without further processing. […] Interluekin-5 (IL5)-expressing ILC2s were examined by flow cytometry and analyzed by FlowJo. […] Frequency of dead cells (measured by e-Fluor 780, e-Bioscience) was less than 10% and excluded from the gating. […]

IL5 secretion by ILCs = test: Secreted IL5 by ELISA from isolated Lin− blood cells; settings: Dex 10^-7 M, 5 days
Protocol: as §1, §2

Question: For `C[C@@H]1C[C@H]2[C@@H]3CCC4=CC(=O)C=C[C@]4(C)[C@@]3(F)[C@@H](O)C[C@]2(C)[C@@]1(O)C(=O)CO` [Dex, dexamethasone], which “TSLP-induced MEK1/2” value (MEK1/2 in ILC2s) is on record?
Answer: failed to inhibit

Question: And the “inhibition of intracellular IL5 expression” value ([1]; IL2/IL33-stimulated ILCs)?
Answer: 65%

Question: What about the “inhibition of intracellular IL5 expression” value ([1]; IL2/TSLP-stimulated ILCs) of the same compound?
Answer: 18%

Question: And the “inhibition of BAL IL5+ ILC2s” value (BAL IL5+ ILC2s)?
Answer: failed to inhibit

Question: And the “difference in dead cells between V and Dex” value [2]?
Answer: less than 10%

Question: What about the “inhibition of IL5 secretion” value (IL5 secretion by ILCs; IL2/IL33-stimulated ILCs) of the same compound?
Answer: ~79%

Question: What about the “inhibition of IL5 secretion” value (IL5 secretion by ILCs; IL2/TSLP-stimulated ILCs) of the same compound?
Answer: 25%
